Values of other authors in patent publication EP4772635A1, “RNAI AGENT TARGETING APP AND PHARMACEUTICAL USE THEREOF” (Tuojie Biotech (Shanghai) Co., Ltd., priority 2023, dated 2025).

Settings: octanol-water partition coefficient, illustrative values in the definitions

NCCCCCCO [6-aminohexanol]
logKow: about 0.7

CC(C)CCC[C@@H](C)[C@H]1CC[C@H]2[C@@H]3CC=C4C[C@@H](OC(=O)NCCCCCCO)CC[C@]4(C)[C@H]3CC[C@]12C [cholesteryl N-(hexan-6-ol)carbamate]
logKow: 10.7
